Among the data in patent publication US20260315492A1, “5,6-FUSED BICYCLIC AMIDES AND COMPOSITIONS FOR USE AS 15-PROSTAGLANDIN DEHYDROGENASE MODULATORS” (AMGEN INC., priority 2023, published 2026) are IC50 values, retold here.

Structures are written as SMILES.

The first assay concerns the target T1, human recombinant 15-PGDH (Homo sapiens, UniProt P15428).
T1 sequence (P15428 1-266): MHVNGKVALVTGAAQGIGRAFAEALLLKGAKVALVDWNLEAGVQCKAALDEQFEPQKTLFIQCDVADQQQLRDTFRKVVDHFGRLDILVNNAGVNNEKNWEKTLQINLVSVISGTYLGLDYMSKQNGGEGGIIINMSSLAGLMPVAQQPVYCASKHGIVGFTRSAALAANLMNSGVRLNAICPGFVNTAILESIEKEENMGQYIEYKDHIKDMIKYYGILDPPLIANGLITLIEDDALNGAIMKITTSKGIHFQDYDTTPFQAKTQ
The assay is described as follows: Inhibition of recombinant 15-PGDH enzymatic activity (NADH quantification after addition of PGE2 and NAD+). It counts as biochemical.
Conditions: not given
Put shortly:
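Human recombinant 15-PGDH in 50 mM Tris pH 7.5, 0.01% Tween-20, 100 μM DTT, pre-incubated 15 min at room temperature with 22-point 2-fold compound dilutions. Reaction started with PGE2 and β-NAD+, run 60 min at room temperature, quenched. NADH signal read as activity; IC50 from concentration-response.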
As to `Cn1cc2cc(-c3cc(C4CCC4)c4c(N)c(C(=O)N5CCC(F)(F)CC5)sc4n3)cnc2n1` [Compound B4, (3-amino-4-cyclobutyl-6-(2-methyl-2H-pyrazolo[3,4-b]pyridin-5-yl)thieno[2,3-b]pyridin-2-yl)(4,4-difluoro-1-piperidinyl)methanone], the IC50 turned out to be 0.387 nM.

Still in this assay, the particulars now being: recombinant 15-PGDH; 15 min pre-incubation, 60-minute reaction, room temperature, pH 7.5; PGE2 and NAD+; read-out: PGDH-Lumi IC50.
Turning to `Cc1c(C(=O)N2CCOCC2)sc2cc(-c3ccc4nn(C)cc4c3)ccc12` [Compound A11, (3-methyl-6-(2-methyl-2H-indazol-5-yl)-1-benzothiophen-2-yl)(4-morpholinyl)methanone], the IC50 was 851 nM. Consider `C[C@@H]1COCCN1C(=O)c1cc2ccc(-c3nccs3)nc2s1` [Compound B33R, ((3R)-3-methyl-4-morpholinyl)(6-(1,3-thiazol-2-yl)thieno[2,3-b]pyridin-2-yl)methanone], for which the IC50 was 4400 nM. Same read-out and setting: the value for `Cn1cc2cc(-c3ccc4cc(C(=O)N5CCOC6CC65)sc4n3)cnc2n1` (stereo not shown) [Compound B53, (6-(2-methyl-2H-pyrazolo[3,4-b]pyridin-5-yl)thieno[2,3-b]pyridin-2-yl)(2-oxa-5-azabicyclo[4.1.0]heptan-5-yl)methanone] was 1.81 nM; that for `C[C@@H]1COCCN1C(=O)c1cc2ccc(-c3cnc4nccnc4c3)nc2s1` [Compound B60R, ((3R)-3-methyl-4-morpholinyl)(6-(pyrido[2,3-b]pyrazin-7-yl)thieno[2,3-b]pyridin-2-yl)methanone] was 10.6 nM; that for `Cn1nc2cc(-c3ccc4cc(C(=O)N5CCOCC5)sc4n3)cnc2n1` [Compound B42, (6-(2-methyl-2H-[1,2,3]triazolo[4,5-b]pyridin-6-yl)thieno[2,3-b]pyridin-2-yl)(4-morpholinyl)methanone] was 6.33 nM. Still for that read-out and setting: the value for `Cn1cc2cc(-c3ccc4sc(C(=O)N5CCCCC5)cc4n3)cnc2n1` [Compound C42, (5-(2-methyl-2H-pyrazolo[3,4-b]pyridin-5-yl)thieno[3,2-b]pyridin-2-yl)(1-piperidinyl)methanone] was 0.394 nM; that for `Cn1cc2cc(-c3cc(C4CC4)c4cc(C(=O)N5CCC(C(F)(F)F)CC5)sc4n3)cnc2n1` [Compound B20, (4-cyclopropyl-6-(2-methyl-2H-pyrazolo[3,4-b]pyridin-5-yl)thieno[2,3-b]pyridin-2-yl)(4-(trifluoromethyl)-1-piperidinyl)methanone] was 1.11 nM; that for `Cn1cc2cc(-c3cc(C4CC4)c4cc(C(=O)N5CCCCC5)sc4n3)cnc2n1` [Compound B23, (4-cyclopropyl-6-(2-methyl-2H-pyrazolo[3,4-b]pyridin-5-yl)thieno[2,3-b]pyridin-2-yl)(1-piperidinyl)methanone] was 0.215 nM.

For the molecule `O=C(c1cc2ccc(-c3ccc(=O)[nH]c3)nc2s1)N1CCOCC1` [Compound B41, 5-(2-(4-morpholinylcarbonyl)thieno[2,3-b]pyridin-6-yl)-2(1H)-pyridinone], the IC50 turned out to be 641 nM. As to `Cn1ccc2cc(-c3ccc4cc(C(=O)N5CCOCC5)sc4n3)cnc2c1=O` [Compound B58, 7-methyl-3-(2-(4-morpholinylcarbonyl)thieno[2,3-b]pyridin-6-yl)-1,7-naphthyridin-8(7H)-one], the IC50 amounted to 8.15 nM. On to `Cn1cc2cc(-c3cc(-c4ccnn4C)c4cc(C(=O)N5CCSCC5)sc4n3)cnc2n1` [Compound B14, (6-(2-methyl-2H-pyrazolo[3,4-b]pyridin-5-yl)-4-(1-methyl-1H-pyrazol-5-yl)thieno[2,3-b]pyridin-2-yl)(4-thiomorpholinyl)methanone], for which the IC50 worked out at 0.519 nM. Turning to `Cn1cc2cc(-c3cc(C4CC4)c4cc(C(=O)N5CCC(F)(F)CC5)sc4n3)cnc2n1` [Compound B19, (4-cyclopropyl-6-(2-methyl-2H-pyrazolo[3,4-b]pyridin-5-yl)thieno[2,3-b]pyridin-2-yl)(4,4-difluoro-1-piperidinyl)methanone], the half-inhibitory concentration (IC50) amounted to 0.853 nM. For the molecule `Cc1c(C(=O)N2CCOCC2)sc2cc(-c3cnc4nn(C)cc4c3)ccc12` [Compound A2, (3-methyl-6-(2-methyl-2H-pyrazolo[3,4-b]pyridin-5-yl)-1-benzothiophen-2-yl)(4-morpholinyl)methanone], the IC50 amounted to 163 nM. Turning to `O=C(c1nc2ccc(N3CCOCC3)nc2s1)N1CCOCC1` [Compound C50, 4-morpholinyl(5-(4-morpholinyl)[1,3]thiazolo[5,4-b]pyridin-2-yl)methanone], the IC50 worked out at 14400 nM. In the case of `CO[C@H]1CCN(C(=O)c2sc3cc(-c4cnc5nn(C)cc5c4)ccc3c2C)C1` [Compound A4S, ((3S)-3-methoxy-1-pyrrolidinyl)(3-methyl-6-(2-methyl-2H-pyrazolo[3,4-b]pyridin-5-yl)-1-benzothiophen-2-yl)methanone], the 50% inhibitory concentration (IC50) was 19.5 nM. On the same count and under the same terms, the same measure for `C[C@@H]1COCCN1C(=O)c1cc2ccc(-c3ccc(=O)n(C)c3)nc2s1` [Compound B32R, 1-methyl-5-(2-(((3R)-3-methyl-4-morpholinyl)carbonyl)thieno[2,3-b]pyridin-6-yl)-2(1H)-pyridinone]: 1350 nM. Still for that read-out and setting: the same measure for `Cn1cc2cc(-c3ccc4nc(C(=O)N5CCOCC5)sc4n3)cnc2n1` [Compound C51, (5-(2-methyl-2H-pyrazolo[3,4-b]pyridin-5-yl)[1,3]thiazolo[5,4-b]pyridin-2-yl)(4-morpholinyl)methanone]: 17.9 nM. Turning to `Cn1cc2cc(-c3cc(C4CCC4)c4c(N)c(C(=O)N5CCOCC5)sc4n3)cnc2n1` [Compound B3, (3-amino-4-cyclobutyl-6-(2-methyl-2H-pyrazolo[3,4-b]pyridin-5-yl)thieno[2,3-b]pyridin-2-yl)(4-morpholinyl)methanone], the IC50 came out at 0.711 nM. Still for that read-out and setting: the value for `C[C@@H]1COCCN1C(=O)c1cc2ccc(-c3cnc4c(c3)nnn4C)nc2s1` [Compound B44R, ((3R)-3-methyl-4-morpholinyl)(6-(3-methyl-3H-[1,2,3]triazolo[4,5-b]pyridin-6-yl)thieno[2,3-b]pyridin-2-yl)methanone] was 56.7 nM. As for `C[C@H]1COCCN1C(=O)c1cc2ccc(-c3cnc4nn(C)cc4c3)nc2s1` [Compound B9S, ((3S)-3-methyl-4-morpholinyl)(6-(2-methyl-2H-pyrazolo[3,4-b]pyridin-5-yl)thieno[2,3-b]pyridin-2-yl)methanone], the IC50 came to 5.05 nM. Still for that read-out and setting: the same measure for `Cn1cc2cc(-c3ccc4cc(C(=O)N5CCOCC5C#N)sc4n3)cnc2n1` (stereo not shown) [Compound B30, 4-((6-(2-methyl-2H-pyrazolo[3,4-b]pyridin-5-yl)thieno[2,3-b]pyridin-2-yl)carbonyl)-3-morpholinecarbonitrile]: 212 nM; for `CO[C@@H]1CCCN(C(=O)c2sc3cc(-c4cnc5nn(C)cc5c4)ccc3c2C)C1` [Compound A7R, ((3R)-3-methoxy-1-piperidinyl)(3-methyl-6-(2-methyl-2H-pyrazolo[3,4-b]pyridin-5-yl)-1-benzothiophen-2-yl)methanone]: 49.5 nM. Still for that read-out and setting: the value for `Cc1c(C(=O)N2CCOC[C@H]2C)sc2cc(-c3cnc4nn(C)cc4c3)ccc12` [Compound A1R, (3-methyl-6-(2-methyl-2H-pyrazolo[3,4-b]pyridin-5-yl)-1-benzothiophen-2-yl)((3R)-3-methyl-4-morpholinyl)methanone] was 273 nM; that for `Cn1cc2cc(-c3cc(C4CC4)c4cc(C(=O)N5CCOCC5)sc4n3)cnc2n1` [Compound B10, (4-cyclopropyl-6-(2-methyl-2H-pyrazolo[3,4-b]pyridin-5-yl)thieno[2,3-b]pyridin-2-yl)(4-morpholinyl)methanone] was 0.917 nM.

What is called IC50 is the concentration needed to halve the response being measured.
